Reference: patent US20150105252A1, “SUBSTITUTED PYRAZOLES AS HERBICIDES” (E I DU PONT DE NEMOURS AND COMPANY, priority 2013, published 2015)

Assays:
[1] = tested on: morningglory; assay: Test A postemergence; assay type: in vivo, Ipomoea spp.
Summary of the method: (§1)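 Visual injury ratings, 0 = no effect to 100 = complete control, taken about 10 days after treatment against untreated controls. Test chemicals, in a non-phytotoxic surfactant-containing solvent, were sprayed onto soil preemergence or onto one- to two-leaf plants (2–10 cm) postemergence, in loam–sand soil under greenhouse conditions.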

[2] = tested on: crabgrass, large; assay: Test A preemergence; assay type: in vivo, Digitaria sanguinalis; settings: 0 to 100 scale
Summary of the method: as §1

[3] = tested on: barnyardgrass; assay: Test A postemergence; assay type: in vivo, Echinochloa crus-galli; settings: Postemergence
Summary of the method: as §1

[4] = tested on: nutsedge, yellow; assay: Test C postemergence; assay type: in vivo, Cyperus esculentus; settings: for Nutsedge, Yellow plant response rating: scale 0 to 100
Text: (§2) Seeds of plant species selected from blackgrass (Alopecurus myosuroides), ryegrass, Italian (Italian ryegrass, Lolium multiflorum), wheat (winter wheat, Triticum aestivum), galium (catchweed bedstraw, Galium aparine), corn (Zea mays), crabgrass, large (large crabgrass, Digitaria sanguinalis), foxtail, giant (giant foxtail, Setaria faberii), johnsongrass (Sorghum halepense), lambsquarters (Chenopodium album), morningglory (Ipomoea coccinea), nutsedge, yellow (yellow nutsedge, Cyperus esculentus), pigweed (redroot pigweed, Amaranthus retroflexus), ragweed (common ragweed, Ambrosia elation), soybean (Glycine max), barnyardgrass (Echinochloa crus-galli), oilseed rape (Brassica napus), waterhemp (common waterhemp, Amaranthus rudis), oat, wild (wild oat, Avena fatua), kochia (Kochia scoparia), Surinam grass (Brachiaria decumbens), foxtail, green (green foxtail, Setaria viridis), goosegrass (Eleusine indica), bromegrass, downy (downy bromegrass, Bromus tectorum), nightshade (eastern black nightshade, Solanum ptycanthum), cocklebur (common cocklebur, Xanthium strumarium), cupgrass, woolly (woolly cupgrass, Eriochloa villosa), bermudagrass (Cynodon dactylon), sunflower, (common oilseed sunflower, Helianthus annuus), Russian thistle (Salsola kali), and velvetleaf (Abutilon theophrasti) were planted into a blend of loam soil and sand and treated preemergence with test chemicals formulated in a non-phytotoxic solvent mixture which included a surfactant.
(§3) At the same time, plants selected from these crop and weed species and also chickweed (common chickweed, Stellaria media), canarygrass (littleseed canarygrass, Phalaris minor), and deadnettle (henbit deadnettle, Lamium amplexicaule), were planted in pots containing Redi-Earth® planting medium (Scotts Company, 14111 Scottslawn Road, Marysville, Ohio 43041) comprising spaghnum peat moss, vermiculite, wetting agent and starter nutrients and treated with postemergence applications of test chemicals formulated in the same manner. Plants ranged in height from 2 to 18 cm (1- to 4-leaf stage) for postemergence treatments. Treated plants and controls were maintained in a greenhouse for 13 to 15 days, after which time all species were compared to controls and visually evaluated. Plant response ratings, summarized in Table C, are based on a scale of 0 to 100 where 0 is no effect and 100 is complete control. A dash (-) response means no test result.

[5] = tested on: chickweed; assay: Test C postemergence; assay type: in vivo, Stellaria media; settings: for Chickweed plant response rating: scale 0 to 100
Text: as §2, §3

[6] = tested on: velvetleaf; assay: Test C preemergence; assay type: in vivo, Abutilon theophrasti; settings: for Plant response rating (scale of 0 to 100), Velvetleaf: 250 g ai/ha
Text: as §2, §3

[7] = tested on: morningglory; assay: Test C preemergence; assay type: in vivo, Ipomoea coccinea; settings: for Plant response rating (scale of 0 to 100), Morningglory: Preemergence, 250 g ai/ha; for Morningglory plant response rating / Plant response rating, Morningglory: preemergence; for Plant response rating, Morningglory: 62 g ai/ha, scale 0 to 100, 0 = no effect, 100 = complete control
Text: as §2, §3

[8] = tested on: nutsedge, yellow; assay: Test C preemergence; assay type: in vivo, Cyperus esculentus; settings: for Plant response rating (scale of 0 to 100), Nutsedge, Yellow: Preemergence, 250 g ai/ha; for Nutsedge, Yellow plant response rating / Plant response rating, Nutsedge, Yellow: preemergence; for Plant response rating, Nutsedge, Yellow: 62 g ai/ha, scale 0 to 100, 0 = no effect, 100 = complete control
Text: as §2, §3

[9] = tested on: crabgrass, large; assay: Test C preemergence; assay type: in vivo, Digitaria sanguinalis; settings: for Plant response rating (scale of 0 to 100), Crabgrass, Large: 250 g ai/ha
Text: as §2, §3

[10] = tested on: rice; assay: Test B flood; assay type: in vivo, Oryza sativa; settings: 250 g ai/ha, visual rating on 0 to 100 scale (0 no effect, 100 complete control), 13 to 15 days
Summary of the method: (§4)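 Each compound is applied to the floodwater of pots holding 2-leaf seedlings, water standing 3 cm over the soil throughout. Plants stay in a greenhouse 13 to 15 days before visual scoring against controls from 0 (no effect) to 100 (complete control).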

[11] = tested on: barnyardgrass; assay: Test C preemergence; assay type: in vivo, Echinochloa crus-galli
Text: as §2, §3

[12] = tested on: ducksalad; assay: Test B flood; assay type: in vivo, Heteranthera limosa; settings: 250 g ai/ha, visual rating on 0 to 100 scale (0 no effect, 100 complete control), 13 to 15 days
Summary of the method: as §4

[13] = Postemergence, 1000 g ai/ha, visual rating after approx. 10 days, 0 to 100 scale (0 no effect, 100 complete control)
[14] = Preemergence, 1000 g ai/ha, 0 no effect, 100 complete control
[15] = 1000 g ai/ha, visual rating after approx. 10 days, 0 to 100 scale (0 no effect, 100 complete control)
[16] = postemergence, 250 g ai/ha, scale 0 to 100 (0 no effect, 100 complete control)
[17] = postemergence, 62 g ai/ha, scale 0 to 100, 0 no effect, 100 complete control
[18] = postemergence, 125 g ai/ha, scale 0 to 100, 0 no effect, 100 complete control
[19] = Postemergence, 500 g ai/ha, visual rating after approx. 10 days, 0 to 100 scale (0 no effect, 100 complete control)
[20] = postemergence, 125 g ai/ha, about 10 days, visual rating on 0 to 100 scale (0 no effect, 100 complete control)
[21] = Preemergence, 500 g ai/ha, 0 no effect, 100 complete control
[22] = preemergence, 125 g ai/ha, visual injury, approx. 10 days
[23] = preemergence, 31 g ai/ha, scale 0 to 100 (0 no effect, 100 complete control), 13 to 15 days
[24] = preemergence, 62 g ai/ha, 13 to 15 days, scale 0 to 100, 0 = no effect, 100 = complete control
[25] = preemergence, 125 g ai/ha, scale 0 to 100, 0 is no effect, 100 is complete control
[26] = 125 g ai/ha, 0 to 100 scale, 0 no effect, 100 complete control
[27] = 500 g ai/ha, visual rating after approx. 10 days, 0 to 100 scale (0 no effect, 100 complete control)
[28] = 31 g ai/ha, scale 0 to 100 (0 no effect, 100 complete control), 13 to 15 days
[29] = 125 g ai/ha, scale 0 to 100, 0 is no effect, 100 is complete control
[30] = Preemergence, 16 g ai/ha, scale 0 to 100
[31] = Postemergence, 31 g ai/ha, visually evaluated after 13 to 15 days

Structure (SMILES)	Nutsedge, Yellow plant response rating ([4]; Postemergence, 31 g ai/ha)	Plant response rating, Nutsedge, Yellow [4, 16]	Plant response rating, Nutsedge, Yellow [4, 18]	Chickweed plant response rating ([5]; Postemergence, 31 g ai/ha)	Plant response rating, Chickweed [5, 16]	Plant response rating, Chickweed [5, 18]	Morningglory plant response rating [1, 19]	Morningglory plant response rating [1, 20]	Crabgrass, Large plant response rating [2, 21]	Crabgrass, Large plant response rating [2, 22]	Velvetleaf plant response rating [6, 23]	Plant response rating, Velvetleaf [6, 24]	Velvetleaf plant response rating [6, 25]	Barnyardgrass plant response rating [3, 26]	Barnyardgrass plant response rating [3, 27]	Nutsedge, Yellow plant response rating [8, 28]	Plant response rating, Nutsedge, Yellow ([8]; 13 to 15 days)	Nutsedge, Yellow plant response rating [8, 29]	Crabgrass, Large plant response rating [9, 23]	Plant response rating, Crabgrass, Large [9, 24]	also measured
CCc1cc(C(=O)NCC(F)(F)F)nn1Cc1cccc(OC(F)(F)F)c1 [Compound 20]	0	0	0	45	75	75															Morningglory plant response rating [1, 13]: 100; Crabgrass, Large plant response rating [2, 14]: 90; Barnyardgrass plant response rating [3, 15]: 60; Plant response rating, Nutsedge, Yellow [4, 17]: 0; Plant response rating, Chickweed [5, 17]: 45
CCCNC(=O)c1cc(CC)n(Cc2cccc(OC(F)(F)F)c2)n1 [Compound 27]	0	0	0	20	75	40															Morningglory plant response rating [1, 13]: 100; Crabgrass, Large plant response rating [2, 14]: 100; Barnyardgrass plant response rating [3, 15]: 60; Plant response rating, Nutsedge, Yellow [4, 17]: 0; Plant response rating, Chickweed [5, 17]: 20
CCc1cc(C(=O)NOC(C)C)nn1Cc1cccc(OC(F)(F)F)c1 [Compound 70]	0	20	0	45	65	50	100	100	100	100	20	60	75	80	90	0	65	70	95	98	Plant response rating (scale of 0 to 100), Velvetleaf ([6]; Preemergence): 100; Plant response rating, Nutsedge, Yellow [4, 17]: 0; Plant response rating, Chickweed [5, 17]: 45; Plant response rating (scale of 0 to 100), Morningglory [7]: 95; Morningglory plant response rating [7, 28]: 0; Plant response rating, Morningglory ([7]; 13 to 15 days): 25; Morningglory plant response rating [7, 29]: 75; Plant response rating (scale of 0 to 100), Nutsedge, Yellow [8]: 85; Plant response rating (scale of 0 to 100), Crabgrass, Large ([9]; Preemergence): 100; Crabgrass, Large plant response rating [9, 25]: 98
CCONC(=O)c1cc(CC)n(Cc2cccc(OC(F)(F)F)c2)n1 [Compound 72]	0	0	0	40	80	50	90	80	100	90	20	100	100	90	90	0	40	60	55	95	Plant response rating (scale of 0 to 100), Velvetleaf ([6]; Preemergence): 100; Nutsedge, Yellow plant response rating ([4]; postemergence, 62 g ai/ha): 0; Chickweed plant response rating ([5]; postemergence, 62 g ai/ha): 40; Plant response rating (scale of 0 to 100), Morningglory [7]: 85; Morningglory plant response rating [7, 28]: 15; Plant response rating, Morningglory ([7]; 13 to 15 days): 65; Morningglory plant response rating [7, 29]: 85; Plant response rating (scale of 0 to 100), Nutsedge, Yellow [8]: 85; Plant response rating (scale of 0 to 100), Crabgrass, Large ([9]; Preemergence): 98; Crabgrass, Large plant response rating [9, 25]: 98
CCCNC(=O)c1cc(CC)n(Cc2ccnc(C(F)(F)F)c2)n1 [Compound 75]	5		10	65		85	100	100	100	100	75	100	100	90	90	55	75	85	100	100	Plant response rating, Velvetleaf [6, 30]: 60; Plant response rating (scale of 0 to 100), Nutsedge, Yellow ([4]; Postemergence, 16 g ai/ha): 0; Nutsedge, Yellow plant response rating ([4]; postemergence, 62 g ai/ha): 5; Plant response rating (scale of 0 to 100), Chickweed ([5]; Postemergence, 16 g ai/ha): 65; Chickweed plant response rating ([5]; postemergence, 62 g ai/ha): 70; Plant response rating, Rice [10]: 35; Plant response rating, Barnyardgrass [11, 30]: 60; Barnyardgrass plant response rating [11, 23]: 100; Plant response rating, Barnyardgrass [11, 24]: 100; Barnyardgrass plant response rating [11, 25]: 100; Plant response rating, Ducksalad [12]: 85; Plant response rating, Crabgrass, Large [9, 30]: 100; Crabgrass, Large plant response rating [9, 25]: 100
CCc1cc(C(=O)NC2CC2)nn1Cc1ccnc(C(F)(F)F)c1 [Compound 76]		5	5		85	80	100	70	100	90	75	85	100	80	90	40	70	90	100	100	Plant response rating (scale of 0 to 100), Velvetleaf ([6]; Preemergence): 100; Plant response rating (scale of 0 to 100 where 0 is no effect and 100 is complete control), Nutsedge, Yellow [4, 31]: 5; Nutsedge, Yellow plant response rating ([4]; postemergence, 62 g ai/ha): 5; Plant response rating (scale of 0 to 100 where 0 is no effect and 100 is complete control), Chickweed [5, 31]: 50; Chickweed plant response rating ([5]; postemergence, 62 g ai/ha): 80; Plant response rating, Rice [10]: 20; Plant response rating (scale of 0 to 100), Nutsedge, Yellow [8]: 98; Plant response rating (scale of 0 to 100), Barnyardgrass ([11]; Preemergence, 250 g ai/ha): 100; Barnyardgrass plant response rating [11, 23]: 95; Plant response rating, Barnyardgrass [11, 24]: 100; Barnyardgrass plant response rating [11, 25]: 100; Plant response rating, Ducksalad [12]: 85; Plant response rating (scale of 0 to 100), Crabgrass, Large ([9]; Preemergence): 100; Crabgrass, Large plant response rating [9, 25]: 100
